Assay results taken from article PMC12040169 (PLOS Biology, 2025).

Test: in vitro
Conditions: human, hela cells, % viability

| Structure (SMILES) | viability at 28.5 h, 10 µM [%] |
| --- | --- |
| CCN(CC)CCn1c2ccccc2c2nc(C)sc21 [CBK266628C] | 100 |
| COc1ccccc1-c1nnc(SCc2ccc(C(=O)O)cc2)[nH]1 [CBK266631] | 99.5 |
| Cc1cc(S(=O)(=O)NCC(=O)O)ccc1F [CBK266632] | 112 |
| Cc1cc(C)c(OCC(=O)Nc2ccc3oc(-c4cncc(Br)c4)nc3c2)c(Cl)c1 [CBK266634] | 100 |
| OCCNc1nc(Nc2ccc(Cl)cc2)nc(N2CCCCC2)n1 [CBK266638] | 97.3 |
| CC(=O)C(Sc1nc(N2CCOCC2)nc(N2CCOCC2)n1)C(=O)Nc1ccccc1 (stereo not shown) [CBK266643] | 93 |
| CN(Cc1ccccc1)S(=O)(=O)c1ccc2c(c1)n(C)c(=O)n2C [CBK266644] | 95.6 |
| O=C(NCc1ccccn1)C1CCC(Cn2c(=S)[nH]c3ccccc3c2=O)CC1 (stereo not shown) [CBK266645] | 95.6 |
| CN1CCN(S(=O)(=O)c2ccc3c4c(cccc24)C(=O)N3)CC1 [CBK266647] | 111 |
| N#Cc1c(NC(=O)CSc2nnc(N)s2)sc2c1CCCC2 [CBK266649] | 99.8 |
| CC(=O)NCCOc1nc(N(C)C)nc(N2CCOCC2)n1 [CBK266651] | 96.7 |
| Cc1ccc(-c2nnc(N3CCN(C(=O)CSc4nc[nH]n4)CC3)c3ccccc23)cc1 [CBK266652] | 107 |
| O=C(CS(=O)(=O)Cc1ccccc1)Nc1ccc(S(=O)(=O)N2CCCCCC2)cc1 [CBK266653] | 98.8 |
| Nc1nc(CN2C(=O)c3ccccc3C2=O)n[nH]1 [CBK266655] | 105 |
| COc1ccc(C2=NN(C(=O)CCC(=O)O)C(c3cccs3)C2)cc1OC (stereo not shown) [CBK266656] | 118 |
| CN(CCO)S(=O)(=O)c1cccc(C(=O)O)c1 [CBK266657] | 89.4 |
| O=C(CS(=O)(=O)Cc1ccccc1)Nc1ccc(S(=O)(=O)N2CCOCC2)cc1 [CBK266658] | 88.8 |
| OCCN1CCN(c2nc(NCC3CCCO3)c3ccccc3n2)CC1 (stereo not shown) [CBK266659C] | 99.1 |
| CC1CCCCC1NC(=O)CSc1nnc(CN2CCOCC2)n1C (stereo not shown) [CBK266662] | 102 |
| COc1ccccc1Nc1nc(N)c2ccccc2n1 [CBK266665C] | 90.4 |
| CCN1CCN(C(=O)CN(CCc2ccccc2)S(C)(=O)=O)CC1 [CBK266666] | 91.8 |
| OCCNc1nc(N2CCN(Cc3ccccc3)CC2)nc2ccccc12 [CBK266667C] | 92.5 |

| Structure (SMILES) | viability at 28.5 h, 10 µM [%] |
| --- | --- |
| CCN1CCN(C(=O)CN(Cc2ccccc2)S(=O)(=O)c2c(C)cc(C)cc2C)CC1 [CBK266670] | 98.1 |
| COc1ccccc1NC(=O)C(=O)NCCc1c[nH]c2ccccc12 [CBK266672] | 108 |
| CCN1CCN(S(=O)(=O)c2cccc([N+](=O)[O-])c2)CC1 [CBK266675] | 83.8 |
| O=[N+]([O-])c1cccc(S(=O)(=O)NCCCn2ccnc2)c1 [CBK266676] | 91.1 |
| COc1ccc2nc(NC(=N)NC(=S)Nc3ccc(Cl)cc3)nc(C)c2c1 [CBK266677] | 88.3 |
| O=C(NCc1cccnc1)C1CCC(Cn2c(=S)[nH]c3ccccc3c2=O)CC1 (stereo not shown) [CBK266678] | 87.9 |
| COc1cc(C)nc(NC(=O)COc2ccc(Cl)cc2C)n1 [CBK266681] | 106 |
| CCN1CCN(c2ccc(NC(=O)c3ccc(OCc4ccccc4)cc3)cc2Cl)CC1 [CBK266683] | 78 |
| Cc1cc(Oc2ccccc2)nc(Oc2ccc(OCC(N)=O)nn2)n1 [CBK266687] | 98.5 |
| COC(=O)C(C)(C)C1c2cc(Br)ccc2OC(=O)C1C(=O)c1ccccc1 (stereo not shown) [CBK266690] | 102 |
| NS(=O)(=O)c1ccc(S(=O)(=O)NCCc2c[nH]c3ccccc23)cc1 [CBK266691] | 82.2 |
| O=C(CN1C(=O)c2ccccc2C1=O)Nc1ccc(S(=O)(=O)N2CCCCCC2)cc1 [CBK266693] | 91.7 |
| Nc1nnc(SCC(=O)N2CCN(C(c3ccccc3)c3ccccc3)CC2)n1-c1ccccc1 [CBK266696] | 108 |
| Cc1ccccc1OCC(O)Cn1c(=N)n(CCN2CCCCC2)c2ccccc21 (stereo not shown) [CBK266698C] | 98.1 |
| Cc1nc(NS(=O)(=O)c2ccccc2)sc1NC(=O)Nn1cnnc1 [CBK266699] | 85.4 |
| O=C(Cn1cc(C(=S)N2CCOCC2)c2ccccc21)Nc1ccc2c(c1)OCO2 [CBK266703] | 94.6 |
| CSc1cccc(NC(=O)CN(C)S(=O)(=O)c2ccc3ccccc3c2)c1 [CBK266708] | 86.2 |
| CCc1cc2c(NC(CCSC)C(=O)O)nc(C)nc2s1 (stereo not shown) [CBK266709] | 90.3 |
| Cc1ccc(-c2nnc3c4ccccc4c(C)nn23)cc1S(=O)(=O)NC(C)c1ccccc1 (stereo not shown) [CBK266715] | 94.5 |
| Cc1ccc(NC2=NC(C(=O)Nc3ccc(C)c(C)c3)CC(=O)N2)cc1 (stereo not shown) [CBK266718] | 96.9 |
| COc1ccc(Cl)cc1NC(=O)CN(C1CCCCC1)S(C)(=O)=O [CBK266720] | 105 |
| COC(=O)c1c(NC(=O)COc2ccccc2C(C)C)sc2c1CCCC2 [CBK266722] | 93.5 |

| Structure (SMILES) | viability at 28.5 h, 10 µM [%] |
| --- | --- |
| Cc1sc2c(c1C)c(=O)nc1scc(CC(=O)NCCO)n12 [CBK266726] | 96.3 |
| Cc1ccc(S(=O)(=O)/N=C(\Nc2nc3ccccc3o2)NS(=O)(=O)c2ccc(C)cc2)cc1 [CBK266728] | 86 |
| Cc1ccc(S(=O)(=O)N(C)CC(=O)Nc2ncc(C(F)(F)F)cc2Cl)cc1 [CBK266729] | 94.8 |
| Cc1cc(=O)oc2c1c(C)nn2-c1nn[nH]n1 [CBK266732] | 91 |
| COc1ccccc1Nc1nc(N)nc(CSc2ncccn2)n1 [CBK266734] | 104 |
| Cc1cc(/C=C(/C#N)c2ccc([N+](=O)[O-])cc2)c(C)n1-c1ccc(S(N)(=O)=O)cc1 [CBK266737] | 108 |
| Cc1nc(N2CCN(Cc3ccc4c(c3)OCO4)CC2)c2c(C)c(C)sc2n1 [CBK266739] | 100 |
| COc1ccc(OCC(=O)Nc2cccc(-c3nnc4c5ccccc5c(C)nn34)c2)cc1 [CBK266743] | 105 |
| O=C1Nc2ccc(S(=O)(=O)NCC(O)c3ccc([N+](=O)[O-])cc3)c3cccc1c23 (stereo not shown) [CBK266745] | 88.1 |
| CN(CC(=O)Nc1cccc(Cl)c1)S(=O)(=O)c1ccc2ccccc2c1 [CBK266746] | 105 |
| COc1ccc(N2CCN(/C(=N/S(=O)(=O)c3ccccc3)Nc3nc(C)cc(C)n3)CC2)cc1 [CBK266750] | 88.7 |
| O=C(CSc1nnc(-c2ccncc2)n1-c1ccccc1)c1ccc(Br)cc1 [CBK266758] | 93.9 |
| CC(Oc1ccc(Br)cc1)C(=O)Nc1ccc(C(N)=O)cc1 (stereo not shown) [CBK266760] | 112 |
| Cc1ccc(O)c(NC(=O)c2ccccc2-c2ccccc2C(=O)O)c1 [CBK266763] | 82.9 |
| Cc1ccc([N+](=O)[O-])cc1NC(=O)c1cc(S(=O)(=O)N(C)C)c(Cl)cc1Cl [CBK266764] | 105 |
| CC(CNC(=O)COc1cc(Cl)c(Cl)cc1Cl)CN(C)C (stereo not shown) [CBK266766] | 88.1 |
| CC(Oc1ccc(Cl)cc1Cl)C(=O)Nc1ccc2oc(-c3ccncc3)nc2c1 (stereo not shown) [CBK266768] | 109 |
| COc1ccc(C(=O)Nc2ccccc2)cc1S(=O)(=O)Nc1cccnc1 [CBK266771] | 94.4 |
| CCCn1nnc(NC(=O)C(C)Oc2ccc(Cl)cc2Cl)n1 (stereo not shown) [CBK266772] | 98.6 |
| Cc1cc(Cl)c(S(=O)(=O)Nc2cccnc2)cc1OCC(=O)NC1CCCCC1 [CBK266773] | 92.7 |
| Cc1cccc(-c2nnc(-c3ccc(NC(=O)CSCc4ccccc4)cc3)o2)c1 [CBK266775] | 109 |
| O=C(CCSc1c(Cl)cccc1[N+](=O)[O-])Nc1ccc(Br)c2cccnc12 [CBK266777] | 101 |

| Structure (SMILES) | viability at 28.5 h, 10 µM [%] |
| --- | --- |
| Cc1ccc(C(=O)COc2ccc(/C=C(\C#N)c3nc(-c4ccc5c(c4)OCO5)cs3)cc2)cc1 [CBK266778] | 101 |
| CC(Oc1ccc(Cl)cc1Cl)C(=O)Nc1ccc(N2CCN(C)CC2)cc1 (stereo not shown) [CBK266780] | 94.1 |
| Cc1cc(Cl)c(S(=O)(=O)N2CCCC2)cc1OCC(=O)NC1CCCCC1 [CBK266781] | 93.9 |
| CN(C)S(=O)(=O)c1cc(C(=O)Nc2ccc(C(=O)O)cc2)c(Cl)cc1Cl [CBK266783] | 99.5 |
| O=C(Nc1cc(Cl)ccc1O)c1ccc(C(=O)Nc2cc(Cl)ccc2O)cc1 [CBK266784] | 94.9 |
| Cc1cc(Cl)c(S(=O)(=O)Nc2ccc3c(c2)OCCO3)cc1OCC(=O)NC1CCCCC1 [CBK266786] | 95.5 |
| COc1ccc(-c2nc3ccccc3o2)cc1NC(=O)C(C)Oc1ccc(Cl)cc1Cl (stereo not shown) [CBK266787] | 76.4 |
| CC1CCN(S(=O)(=O)c2cccc(C(=O)N3CCC(C(=O)O)CC3)c2)CC1 [CBK266790] | 87.4 |
| COc1cc(OC)c(NC(=O)C(C)Oc2ccc(Br)cc2)cc1Cl (stereo not shown) [CBK266791] | 97 |
| O=C(NNC(=O)c1cccnc1)c1ccc(NC(=O)c2ccco2)cc1 [CBK266792] | 111 |
| CC1CCN(S(=O)(=O)c2cccc(C(=O)NNC(=O)c3ccco3)c2)CC1 [CBK266796] | 92.2 |
| Cc1cc(Cl)c(S(=O)(=O)N2CCN(c3ccccn3)CC2)cc1OCC(=O)NC1CCCCC1 [CBK266798] | 90.7 |
| Cc1nnc2sc(-c3ccc(NC(=O)CSc4ccc(Cl)cc4)cc3)nn12 [CBK266800] | 108 |
| COc1ccc(S(=O)(=O)Nc2ccc(S(=O)(=O)Nc3nccs3)cc2)c([N+](=O)[O-])c1 [CBK266801] | 95.6 |
| Cc1nnc2sc(-c3ccc(NC(=S)NC(=O)c4ccc(-c5ccccc5[N+](=O)[O-])o4)cc3)nn12 [CBK266803] | 86.4 |
| O=C(CCc1nc2ccccc2nc1O)OCc1cccc([N+](=O)[O-])c1 [CBK266804] | 85 |
| COc1ccc(/C(N)=N/OC(=O)C(C)Oc2ccc(Br)cc2)cc1OC (stereo not shown) [CBK266807] | 95.6 |
| COc1ccc2c(c1)c(=O)oc1c(CN3CCCC3)c(O)ccc12 [CBK266814] | 95.3 |
| Cc1nnc(SCC(=O)Nc2cc(C(F)(F)F)ccc2N2CCOCC2)o1 [CBK266815] | 109 |
